Results from US20070179154A1, “Coumarin derivatives, process for their production and use thereof” (Takeda Pharmaceutical Company Limited, priority 2002, published 2007).

First: COC(=O)c1ccc(-c2c(CC(=O)Nc3ccc(F)cc3C(F)(F)F)c(=O)oc3cc(Cl)c(C)cc23)cc1 [Example 45, Methyl 4-(7-chloro-3-{2-[4-fluoro-2-(trifluoromethyl)anilino]-2-oxoethyl}-6-methyl-2-oxo-2H-chromen-4-yl)benzoate]
Second: Cc1cc2c(-c3cccc(C(=O)O)c3)c(CC(=O)Nc3ccc(F)cc3C(F)(F)F)c(=O)oc2cc1Cl [Example 2]
The melting point of the first is lower: 202 to 204 °C for the first, 278 to 280 °C for the second.

First: O=C(O)CCc1cccc(-c2c(CC(=O)Nc3ccc(F)cc3C(F)(F)F)c(=O)oc3ccccc23)c1 [Example 24, 3-[3-[3-[2-[[4-fluoro-2-(trifluoromethyl)phenyl]amino]-2-oxoethyl]-2-oxo-2H-chromen-4-yl]phenyl]propionic acid]
Second: O=C(O)CCc1cccc(-c2c(CC(=O)Nc3ccc(F)cc3C(F)(F)F)c(=O)oc3cc(Cl)ccc23)c1 [Example 23, 3-[3-[7-chloro-3-[2-[[4-fluoro-2-(trifluoromethyl)phenyl]amino]-2-oxoethyl]-2-oxo-2H-chromen-4-yl]phenyl]propionic acid]
The melting point of the first is higher: 230 to 232 °C for the first, 211 to 212 °C for the second.

Compared with `CCOC(=O)/C=C/c1cccc(-c2c(CC(=O)Nc3ccc(F)cc3C(F)(F)F)c(=O)oc3cc(Cl)ccc23)c1` [Example 7, ethyl (2E)-3-[3-[7-chloro-3-[2-[[4-fluoro-2-(trifluoromethyl)phenyl]amino]-2-oxoethyl]-2-oxo-2H-chromen-4-yl]phenyl]-2-propenoate], `O=C(O)/C=C/c1cccc(-c2c(CC(=O)Nc3ccc(F)cc3C(F)(F)F)c(=O)oc3cc(Cl)ccc23)c1` [Example 18, (2E)-3-[3-[7-chloro-3-[2-[[4-fluoro-2-(trifluoromethyl)phenyl]amino]-2-oxoethyl]-2-oxo-2H-chromen-4-yl]phenyl]-2-propenoic acid] is higher in melting point: 166 to 169 °C for the first, 254 to 257 °C for the second.

First: Cc1cc2c(-c3cccc(/C=C/C(=O)O)c3)c(CC(=O)Nc3ccccc3C(F)(F)F)c(=O)oc2cc1Cl [Example 15, (2E)-3-[3-[7-chloro-6-methyl-2-oxo-3-(2-oxo-2-[[2-(trifluoromethyl)phenyl]amino]ethyl)-2H-chromen-4-yl]phenyl]-2-propenoic acid]
Second: Cc1cc2oc(=O)c(CC(=O)Nc3ccc(F)cc3C(F)(F)F)c(-c3cccc(/C=C/C(=O)O)c3)c2cc1Cl [Example 16, (2E)-3-[3-[6-chloro-3-(2-[[4-fluoro-2-(trifluoromethyl)phenyl]amino]-2-oxoethyl)-7-methyl-2-oxo-2H-chromen-4-yl]phenyl]-2-propenoic acid]
The melting point of the first is lower: 252 to 254 °C for the first, 272 to 274 °C for the second.

First: CCOC(=O)CSCc1cccc(-c2c(CC(=O)Nc3ccc(F)cc3C(F)(F)F)c(=O)oc3cc(Cl)c(C)cc23)c1 [Example 63, Ethyl ({3-[7-chloro-3-(2-{[4-fluoro-2-(trifluoromethyl)phenyl]amino}-2-oxoethyl)-6-methyl-2-oxo-2H-chromen-4-yl]benzyl}thio)acetate]
Second: CCOC(=O)CCc1cccc(-c2c(CC(=O)Nc3ccc(F)cc3C(F)(F)F)c(=O)oc3cc(Cl)c(C)cc23)c1 [Example 8, ethyl 3-[5-[7-chloro-3-[2-[[4-fluoro-2-(trifluoromethyl)phenyl]amino]-2-oxoethyl]-6-methyl-2-oxo-2H-chromen-4-yl]phenyl]propionate]
The melting point of the first is lower: 106 to 108 °C for the first, 121 to 123 °C for the second.

First: Cc1cc2c(-c3cccc(C(=O)O)c3)c(CC(=O)Nc3ccc(Cl)cc3C(F)(F)F)c(=O)oc2cc1Cl [Example 1, 3-[7-chloro-3-[2-[[4-chloro-2-(trifluoromethyl)phenyl]amino]-2-oxoethyl]-6-methyl-2-oxo-2H-chromen-4-yl]benzoic acid]
Second: Cc1cc2c(-c3cccc(C(=O)NC(C)C)c3)c(CC(=O)Nc3ccc(Cl)cc3C(F)(F)F)c(=O)oc2cc1Cl [Example 121]
The melting point of the first is higher: 270 to 272 °C for the first, 215 to 217 °C for the second.

First: Cc1cc2c(-c3cccc(CCc4nnn[nH]4)c3)c(CC(=O)Nc3ccc(F)cc3C(F)(F)F)c(=O)oc2cc1Cl [Example 98]
Second: Cc1cc2c(-c3cccc(/C=C/c4nnn[nH]4)c3)c(CC(=O)Nc3ccc(F)cc3C(F)(F)F)c(=O)oc2cc1Cl [Example 41, 2-(7-chloro-6-methyl-2-oxo-4-{3-[(E)-2-(1H-tetrazol-5-yl)ethenyl]phenyl}-2H-chromen-3-yl)-N-[4-fluoro-2-(trifluoromethyl)phenyl]acetamide]
The melting point of the first is higher: 244 to 246 °C for the first, 216 to 218 °C for the second.

First: CCOC(=O)CCc1cccc(-c2c(CC(=O)Nc3ccc(F)cc3C(F)(F)F)c(=O)oc3cc(C)c(Cl)cc23)c1 [Example 10, ethyl 3-[3-[6-chloro-3-[2-[[4-fluoro-2-(trifluoromethyl)phenyl]amino]-2-oxoethyl]-7-methyl-2-oxo-2H-chromen-4-yl]phenyl]propionate]
Second: CCOC(=O)CCc1cccc(-c2c(CC(=O)Nc3ccc(F)cc3C(F)(F)F)c(=O)oc3cc(Cl)c(F)cc23)c1 [Example 11, ethyl 3-[3-[7-chloro-6-fluoro-3-[2-[[4-fluoro-2-(trifluoromethyl)phenyl]amino]-2-oxoethyl]-2-oxo-2H-chromen-4-yl]phenyl]propionate]
The melting point of the first is higher: 158 to 160 °C for the first, 142 to 144 °C for the second.

First: CCOC(=O)/C=C/c1cccc(-c2c(CC(=O)Nc3ccc(F)cc3C(F)(F)F)c(=O)oc3cc(Cl)c(F)cc23)c1 [Example 6, ethyl (2E)-3-[3-[7-chloro-6-fluoro-3-[2-[[4-fluoro-2-(trifluoromethyl)phenyl]amino]-2-oxoethyl]-2-oxo-2H-chromen-4-yl]phenyl}-2-propenoate]
Second: O=C(O)/C=C/c1cccc(-c2c(CC(=O)Nc3ccc(F)cc3C(F)(F)F)c(=O)oc3cc(Cl)c(F)cc23)c1 [Example 17, (2E)-3-[3-[7-chloro-6-fluoro-3-[2-[[4-fluoro-2-(trifluoromethyl)phenyl]amino]-2-oxoethyl]-2-oxo-2H-chromen-4-yl]phenyl]-2-propenoic acid]
The melting point of the first is lower: 151 to 153 °C for the first, 245 to 247 °C for the second.

First: Cc1cc2c(-c3cccc(Cc4noc(=O)[nH]4)c3)c(CC(=O)Nc3ccc(F)cc3C(F)(F)F)c(=O)oc2cc1Cl [Example 100]
Second: Cc1cc2c(-c3cccc(-c4noc(=O)[nH]4)c3)c(CC(=O)Nc3ccc(F)cc3C(F)(F)F)c(=O)oc2cc1Cl [Example 99, 2-{7-chloro-6-methyl-2-oxo-4-[3-(5-oxo-4,5-dihydro-1,2,4-oxadiazol-3-yl)phenyl]-2H-chromen-3-yl}-N-[4-fluoro-2-(trifluoromethyl)phenyl]acetamide]
The melting point of the first is lower: 161 to 164 °C for the first, 285 to 287 °C for the second.

First: CCOC(=O)CNCc1cccc(-c2c(CC(=O)Nc3ccc(F)cc3C(F)(F)F)c(=O)oc3cc(Cl)c(C)cc23)c1 [Example 62, Ethyl ({3-[7-chloro-3-(2-{[4-fluoro-2-(trifluoromethyl)phenyl]amino}-2-oxoethyl)-6-methyl-2-oxo-2H-chromen-4-yl]benzyl}amino)acetate]
Second: CCOC(=O)CS(=O)(=O)Cc1cccc(-c2c(CC(=O)Nc3ccc(F)cc3C(F)(F)F)c(=O)oc3cc(Cl)c(C)cc23)c1 [Example 64, Ethyl ({3-[7-chloro-3-(2-{[4-fluoro-2-(trifluoromethyl)phenyl]amino}-2-oxoethyl)-6-methyl-2-oxo-2H-chromen-4-yl]benzyl}sulfonyl)acetate]
The melting point of the first is lower: 153 to 155 °C for the first, 230 to 231 °C for the second.

Compared with `O=C(O)CCc1cccc(-c2c(CC(=O)Nc3ccc(F)cc3C(F)(F)F)c(=O)oc3cc(Cl)c(F)cc23)c1` [Example 22, 3-[3-[7-chloro-6-fluoro-3-[2-[[4-fluoro-2-(trifluoromethyl)phenyl]amino]-2-oxoethyl]-2-oxo-2H-chromen-4-yl]phenyl]propionic acid], `Cc1cc2oc(=O)c(CC(=O)Nc3ccc(F)cc3C(F)(F)F)c(-c3cccc(CCC(=O)O)c3)c2cc1Cl` [Example 21, 3-[3-[6-chloro-3-(2-[[4-fluoro-2-(trifluoromethyl)phenyl]amino]-2-oxoethyl)-7-methyl-2-oxo-2H-chromen-4-yl]phenyl]propionic acid] is higher in melting point: 198 to 200 °C for the first, 240 to 242 °C for the second.

First: Cc1cc2c(-c3cccc(-c4noc(=S)[nH]4)c3)c(CC(=O)Nc3ccc(F)cc3C(F)(F)F)c(=O)oc2cc1Cl [Example 102, 2-{7-chloro-6-methyl-2-oxo-4-[3-(5-thioxo-4,5-dihydro-1,2,4-oxadiazol-3-yl)phenyl]-2H-chromen-3-yl}-N-[4-fluoro-2-(trifluoromethyl)phenyl]acetamide]
Second: CCOC(=O)/C=C/C=C/c1cccc(-c2c(CC(=O)Nc3ccc(F)cc3C(F)(F)F)c(=O)oc3cc(Cl)c(C)cc23)c1 [Example 51, Ethyl (2E,4E)-5-[3-(7-chloro-3-{2-[4-fluoro-2-(trifluoromethyl)anilino]-2-oxoethyl}-6-methyl-2-oxo-2H-chromen-4-yl)phenyl]-2,4-pentadienoate]
The melting point of the first is lower: 178 to 180 °C for the first, 216 to 218 °C for the second.

First: COC(=O)c1cccc(-c2c(CC(=O)Nc3ccc(Cl)cc3C(F)(F)F)c(=O)oc3cc(Cl)c(CN4CCN(c5ccccc5)CC4)cc23)c1 [Example 109]
Second: COC(=O)c1cccc(-c2c(CC(=O)Nc3ccc(F)cc3C(F)(F)F)c(=O)oc3cc(Cl)c(CN4CCN(c5ccccc5)CC4)cc23)c1 [Example 108]
The melting point of the first is lower: 130 to 132 °C for the first, 135 to 137 °C for the second.

First: CCOC(=O)/C=C/c1cc(-c2c(CC(=O)Nc3ccc(Cl)cc3C(F)(F)F)c(=O)oc3cc(Cl)c(C)cc23)ccc1F [Example 3, ethyl (2E)-3-[5-[7-chloro-3-[2-[[4-chloro-2-(trifluoromethyl)phenyl]amino]-2-oxoethyl]-6-methyl-2-oxo-2H-chromen-4-yl]-2-fluorophenyl]-2-propenoate]
Second: CCOC(=O)CCc1cccc(-c2c(CC(=O)Nc3ccc(F)cc3C(F)(F)F)c(=O)oc3cc(Cl)ccc23)c1 [Example 12, ethyl 3-[3-[7-chloro-3-[2-[[4-fluoro-2-(trifluoromethyl)phenyl]amino]-2-oxoethyl]-2-oxo-2H-chromen-4-yl]phenyl]propionate]
The melting point of the first is lower: 160 to 162 °C for the first, 164 to 165 °C for the second.

In the case of `Cc1cc2c(-c3cccc(-c4nsc(=O)[nH]4)c3)c(CC(=O)Nc3ccc(F)cc3C(F)(F)F)c(=O)oc2cc1Cl` [Example 104, 2-{7-chloro-6-methyl-2-oxo-4-[3-(5-oxo-4,5-dihydro-1,2,4-thiadiazol-3-yl)phenyl]-2H-chromen-3-yl}-N-[4-fluoro-2-(trifluoromethyl)phenyl]acetamide], the melting point is reported as 269 to 271 °C (dec.).
